Experimental data published in patent publication US9011880B2, “Compounds and methods for treating cancer” (IGF Oncology, LLC, priority 2003, dated 2015).
Read-outs that look alike come from different tables or passages of the source.

Assays:
[1] = humans, cited from earlier work
[2] = test system: MDA-231 (human breast carcinoma); assay: Cell proliferation response to insulin and IGF-1: MDA-231; assay type: cell-based; settings: MDA-231, minimal medium, 1 ug/ml insulin or 100 ng/ml IGF-1, 1, 2 and 4 days; data not shown
Protocol: (§1) The cell lines LNCAP, MCF-7, MDA-231, SCK, and HOP-92 were also tested to determine whether the cells increased their proliferation in the presence of insulin or IGF-1. Cells were plated in minimal medium with no addition (negative control), 1 ug/ml insulin, 100 ng/ml IGF-1, or 10% fetal calf serum (positive control), and cell density was monitored at 1, 2, and 4 days after plating. […] (Data not shown).

[3] = test system: MCF-7 (human breast carcinoma); assay: Cell proliferation response to insulin and IGF-1: MCF-7; assay type: cell-based; settings: MCF-7, minimal medium, 1 ug/ml insulin or 100 ng/ml IGF-1, 1, 2 and 4 days; data not shown
Protocol: as §1

[4] = test system: LNCAP (human prostate carcinoma); assay: Cell proliferation response to insulin and IGF-1: LNCAP; assay type: cell-based; settings: minimal medium, 1 ug/ml insulin or 100 ng/ml IGF-1, 1, 2 and 4 days, data not shown
Protocol: as §1

[5] = test system: SCK (mouse mammary carcinoma); assay: Cell proliferation response to insulin and IGF-1: SCK; assay type: cell-based; settings: minimal medium, 1 ug/ml insulin or 100 ng/ml IGF-1, 1, 2 and 4 days, data not shown
Protocol: as §1

FSAII tumors = assay: FSAII tumor growth in vivo in mice; set-up: species or system mouse
Protocol: FSAII testing. Six-week old female mice were injected subcutaneously in the thigh with 200,000 FSAII cells each in serum-free medium. Tumors were allowed to grow until they reached an average volume of 100 mm^3 (calculated as length×breadth^2). At that time, treatment was initiated. […] A fifth group of mice was untreated controls. Each group contained five mice. Mice were treated on days 0, 2, and 5. Tumor growth was measured every second day.

LNCAP tumors = assay type: in vivo, mouse
Protocol: LNCAP testing. Eight-week old athymic male mice (nu/nu) were injected subcutaneously in the thigh with 1 million LNCAP cells in serum-free medium. Tumors were allowed to grow until they reached an average size of 100 mm^3. […] A fifth group of mice was untreated controls.

type 1 IGF receptor = settings: cited from earlier work
[6] = high dose 60 μmoles/kg methotrexate, intraperitoneally, days 0, 2 and 5
[7] = low dose conjugate vs high dose methotrexate

## O=P1(N(CCCl)CCCl)NCCCO1 (stereo not drawn) [cyclophosphamide]
[1]
  maximum safe dosage: approximately 5 millimoles per meter squared per 3 weeks
  minimum effective dosage: approximately 3 millimoles per meter squared per 3 weeks

## CC(=O)O[C@@]12CO[C@@H]1C[C@H](O)[C@@]1(C)C(=O)[C@H](O)C3=C(C)[C@@H](OC(=O)[C@H](O)[C@@H](NC(=O)OC(C)(C)C)c4ccccc4)C[C@@](O)([C@@H](OC(=O)c4ccccc4)[C@H]21)C3(C)C [docetaxel]
[1]; cumulative per 3 weeks
  maximum safe dosage: about 120 micromoles per meter squared per 3 weeks
[1]; lowest dosage usually used
  minimum effective dosage: about 70 micromoles per meter squared per 3 weeks

## COc1cccc2c1C(=O)c1c(O)c3c(c(O)c1C2=O)C[C@@](O)(C(=O)CO)C[C@@H]3O[C@H]1C[C@H](N)[C@H](O)[C@H](C)O1 [doxorubicin]
[1]; cumulative per 3 weeks
  maximum safe dosage: approximately 130 micromoles per meter squared per 3 weeks
[1]; lowest dosage usually used
  minimum effective dosage: ~100 micromoles per meter squared per 3 weeks
[1]; per 3 weeks
  minimum effective dosage: about 60 mg/m^2

## CC[C@]1(O)C[C@H]2CN(CCc3c([nH]c4ccccc34)[C@@](C(=O)OC)(c3cc4c(cc3OC)N(C=O)[C@H]3[C@@](O)(C(=O)OC)[C@H](OC(C)=O)[C@]5(CC)C=CCN6CC[C@]43[C@@H]65)C2)C1 [vincristine]
[1]; cumulative per 3 weeks
  maximum safe dosage: about 8 micromoles per meter squared per 3 weeks
[1]; lowest dosage usually used
  minimum effective dosage: about 3.25 micromoles per meter squared per 3 weeks

## IGF-1: human insulin-like growth factor-1, SEQ ID NO:1
[2]
  stimulation of proliferation: stimulated proliferation
[3]
  stimulation of proliferation: stimulated proliferation
[4]
  stimulation of proliferation: stimulated proliferation
[5]
  stimulation of proliferation: stimulated proliferation

## insulin-methotrexate conjugate: approximately 3 MTX attached to each insulin by direct amide bonds to the two alpha amino groups and one lysine side chain
FSAII tumors; [6]
  effect on FSAII tumor growth: appeared to very significantly slow tumor growth
  toxicity (death of mice): killed all five mice by one day following the third treatment
FSAII tumors; low dose 15 μmoles/kg methotrexate, intraperitoneally, days 0, 2 and 5
  effect on FSAII tumor growth: significantly slowed tumor growth
FSAII tumors; [7]
  activity against FSAII tumors in vivo relative to unconjugated methotrexate: at least 4 fold
LNCAP tumors; low dose 15 μmoles/kg methotrexate, days 0, 4, 8, 18, 22 and 26
  effect on LNCAP tumor growth: appeared to slow tumor growth
LNCAP tumors; [7]
  lower concentration at which effective against LNCAP tumors relative to unconjugated methotrexate: at least 2.6 times

## insulin: insulin
[2]
  stimulation of proliferation: stimulated proliferation
[3]
  stimulation of proliferation: stimulated proliferation
[4]
  stimulation of proliferation: stimulated proliferation
[5]
  stimulation of proliferation: stimulated proliferation

## long-R3-IGF-1: variant of IGF-1, SEQ ID NO:4, reduced binding affinity for soluble IGF binding proteins (GroPep)
Type 1 IGF receptor
  binding affinity for the type 1 IGF receptor compared to wild-type IGF-1: equal binding affinity
